Activity and Vmax data for 2 molecules are collected here from PMC3861733 (Molecular & Cellular Proteomics : MCP, 2013).

One data set deals with T1, Saci-PP2A (Sulfolobus acidocaldarius, UniProt Q4JAD1).
T1 sequence (Q4JAD1 1-293): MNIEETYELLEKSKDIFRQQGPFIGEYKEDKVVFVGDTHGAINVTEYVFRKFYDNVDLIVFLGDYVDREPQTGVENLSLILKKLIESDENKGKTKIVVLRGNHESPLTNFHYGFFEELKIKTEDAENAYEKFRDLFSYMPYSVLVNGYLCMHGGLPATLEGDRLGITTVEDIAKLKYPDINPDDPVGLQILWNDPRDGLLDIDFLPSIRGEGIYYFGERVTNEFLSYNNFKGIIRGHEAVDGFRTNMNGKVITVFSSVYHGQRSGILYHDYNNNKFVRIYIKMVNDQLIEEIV
In words: malachite green phosphate release assay, inhibition. It counts as biochemical. Conditions: read-out: % activity at 10 nM.

Substrate in the data set “purified protein”: O=[N+]([O-])c1ccc(OP(=O)(O)O)cc1
Kind of data set: purified protein. The class given is biochemical, Sulfolobus acidocaldarius. Particulars: 0.1 M HEPES/KOH pH 6.5, 70 °C, substrate inhibition above 2 mM.

`C=C1[C@@H](O)[C@@H]2O[C@]3(CC[C@H](/C=C/[C@@H](C)[C@@H]4CC(C)=C[C@@]5(O[C@H](C[C@@](C)(O)C(=O)O)CC[C@H]5O)O4)O3)CC[C@H]2O[C@@H]1[C@@H](O)C[C@H](C)[C@H]1O[C@@]2(CCCCO2)CC[C@H]1C` [okadaic acid]: at Saci-PP2A, the activity at 0.01 µM came out at 56%.

B1: Saci-PTP (Sulfolobus acidocaldarius DSM 639) (protein)
chain: MYWVKKHVIGGSAIPYTQDEIIGWINEGVKRVLVLPEEFEIDEAWGSLEYYISVLKSFNIEYLYSPIPDGRAPSENQFLEIYKWLRKDKGNLVHCVGGIGRTGTILASYLVLEENMSAEEAIEEVRRVRPGAVQTYEQELFVFKVEKMKDKWKIL
As to B1, the Vmax in “purified protein” is 3.7 µmol/min/mg.
